From US20090047221A1 (NIPRI LIMITED, priority 2004, published 2009)

Test system: cancer cell line MDA-MB-468
Experiment: Combination index with known cancer drugs against proliferation (Calcusyn software)
Type: cell-based
Excerpt: A combination index of less than 0.1 indicates very strong synergy; a combination index of 0.1 to 0.3 indicates strong synergism; a combination index of 0.3 to 0.7 indicates synergism; a combination index of 0.7 to 0.85 indicates moderate synergism; a combination index of 0.85 to 0.9 indicates slight synergism and a combination index of 0.9 to 1.1 indicates only very slight synergism, said combination being close to merely additive.
The combination index may be calculated using calcusyn software.
Evidence of synergy was determined by calculation of the combination index using Calcusyn software.
The MTT assay was used initially to determine the anti-proliferative activity of the test compounds. In the MTT assay a yellow thiazolyl blue tetrazolium bromide salt (MTT) is reduced, in metabolically active cells, to form insoluble purple formazan crystals which are solubilised by the addition of dimethyl sulphoxide (DMSO). Absorbance readings can then be determined spectrophotometrically and a relationship established between control untreated cells and drug treated cells enabling the quantification of anti-proliferative changes as a result of drug treatment (Mosmann, 1983).
Wells containing medium only were used as blanks. Following the attachment period, cells were treated with appropriate drug concentrations (20 μl added per well). 40 mg/ml stock drug solutions, in DMSO, were stored at −20° C. and on the day of drug treatment working solutions of 4 mg/ml were prepared in medium which was further diluted to achieve final drug dilution volumes of 20 μl. Initial screening was determined over a concentration range of 1-200 μg/ml. For potent compounds the assay was repeated over a narrower concentration range to determine accurate IC50 values. Cells were exposed to drug for 96 h continual exposure (37° C., 5% CO2). Following the 96 h incubation, 50 μl MTT solution (1 g MTT/500 ml PBS) was added per well and the plates were further incubated for 4 h (37° C., 5% CO2). After incubation the MTT and medium was removed from the wells and 100 μl DMSO added per well. Plates were agitated on an orbital mixer platform (Stuart Scientific) for 10 minutes. Absorbance was measured at 570 nm on a Biotrak II (Amersham Bioscience) plate reader. IC50 values were calculated comparing control and drug treated cells.

CC(C)CC(NC(=O)c1ccc2c(c1O)C(=O)OC(C)C2)C(=O)OC(C)(C)C (mixture of isomers) [ALM-55, Leucine Tert-Butyl Ester Amide]
Combination Index (Cisplatin 1 × 10^−2 mol/L, ALM compound 0.1 μg/ml): 0.003 | Combination Index (Cisplatin 1 × 10^−2 mol/L, ALM compound 0.5 μg/ml): 0.009 | Combination Index (Cisplatin 1 × 10^−2 mol/L, ALM compound 1.0 μg/ml): 0.023 | Combination Index (Cisplatin 1 × 10^−2 mol/L, ALM compound 5.0 μg/ml): 0.11 | Combination Index (Cisplatin 1 × 10^−3 mol/L, ALM compound 0.1 μg/ml): 0.031 | Combination Index (Cisplatin 1 × 10^−3 mol/L, ALM compound 0.5 μg/ml): No | Combination Index (Cisplatin 1 × 10^−3 mol/L, ALM compound 1.0 μg/ml): No | Combination Index (Cisplatin 1 × 10^−3 mol/L, ALM compound 5.0 μg/ml): No | Combination Index (Cisplatin 1 × 10^−4 mol/L, ALM compound 0.1 μg/ml): No | Combination Index (Cisplatin 1 × 10^−4 mol/L, ALM compound 0.5 μg/ml): No | Combination Index (Cisplatin 1 × 10^−4 mol/L, ALM compound 1.0 μg/ml): No | Combination Index (Cisplatin 1 × 10^−4 mol/L, ALM compound 5.0 μg/ml): No | Combination Index (Cisplatin 1 × 10^−5 mol/L, ALM compound 0.1 μg/ml): No | Combination Index (Cisplatin 1 × 10^−5 mol/L, ALM compound 0.5 μg/ml): No | Combination Index (Cisplatin 1 × 10^−5 mol/L, ALM compound 1.0 μg/ml): No | Combination Index (Cisplatin 1 × 10^−5 mol/L, ALM compound 5.0 μg/ml): No | Combination Index (Cisplatin 1 × 10^−6 mol/L, ALM compound 0.1 μg/ml): No | Combination Index (Cisplatin 1 × 10^−6 mol/L, ALM compound 0.5 μg/ml): No | Combination Index (Cisplatin 1 × 10^−6 mol/L, ALM compound 1.0 μg/ml): No | Combination Index (Cisplatin 1 × 10^−6 mol/L, ALM compound 5.0 μg/ml): No | Combination Index (Cisplatin 1 × 10^−7 mol/L, ALM compound 0.1 μg/ml): 0.431 | Combination Index (Cisplatin 1 × 10^−7 mol/L, ALM compound 0.5 μg/ml): No | Combination Index (Cisplatin 1 × 10^−7 mol/L, ALM compound 1.0 μg/ml): No | Combination Index (Cisplatin 1 × 10^−7 mol/L, ALM compound 5.0 μg/ml): No | Combination Index (Cisplatin 1 × 10^−8 mol/L, ALM compound 0.1 μg/ml): 0.155 | Combination Index (Cisplatin 1 × 10^−8 mol/L, ALM compound 0.5 μg/ml): No | Combination Index (Cisplatin 1 × 10^−8 mol/L, ALM compound 1.0 μg/ml): No | Combination Index (Cisplatin 1 × 10^−8 mol/L, ALM compound 5.0 μg/ml): No | Combination Index (Cisplatin 1 × 10^−9 mol/L, ALM compound 0.1 μg/ml): 0.093 | Combination Index (Cisplatin 1 × 10^−9 mol/L, ALM compound 0.5 μg/ml): 0.531 | Combination Index (Cisplatin 1 × 10^−9 mol/L, ALM compound 1.0 μg/ml): No | Combination Index (Cisplatin 1 × 10^−9 mol/L, ALM compound 5.0 μg/ml): No | Combination Index (Doxorubicin 1 × 10^−4 mol/L, ALM compound 0.1 μg/ml): No | Combination Index (Doxorubicin 1 × 10^−4 mol/L, ALM compound 0.5 μg/ml): No | Combination Index (Doxorubicin 1 × 10^−4 mol/L, ALM compound 1.0 μg/ml): No | Combination Index (Doxorubicin 1 × 10^−4 mol/L, ALM compound 5.0 μg/ml): No | Combination Index (Doxorubicin 1 × 10^−5 mol/L, ALM compound 0.1 μg/ml): 0.284 | Combination Index (Doxorubicin 1 × 10^−5 mol/L, ALM compound 0.5 μg/ml): No | Combination Index (Doxorubicin 1 × 10^−5 mol/L, ALM compound 1.0 μg/ml): 0.344 | Combination Index (Doxorubicin 1 × 10^−5 mol/L, ALM compound 5.0 μg/ml): 0.969 | Combination Index (Etoposide 1 × 10^−4 mol/L, ALM compound 0.1 μg/ml): 0.312 | Combination Index (Etoposide 1 × 10^−4 mol/L, ALM compound 0.5 μg/ml): 0.142 | Combination Index (Etoposide 1 × 10^−4 mol/L, ALM compound 1.0 μg/ml): 0.473 | Combination Index (Etoposide 1 × 10^−4 mol/L, ALM compound 5.0 μg/ml): 0.335 | Combination Index (Etoposide 1 × 10^−5 mol/L, ALM compound 0.1 μg/ml): No | Combination Index (Etoposide 1 × 10^−5 mol/L, ALM compound 0.5 μg/ml): 1.136 | Combination Index (Etoposide 1 × 10^−5 mol/L, ALM compound 1.0 μg/ml): No | Combination Index (Etoposide 1 × 10^−5 mol/L, ALM compound 5.0 μg/ml): No | Combination Index (Etoposide 1 × 10^−6 mol/L, ALM compound 0.1 μg/ml): No | Combination Index (Etoposide 1 × 10^−6 mol/L, ALM compound 0.5 μg/ml): No | Combination Index (Etoposide 1 × 10^−6 mol/L, ALM compound 1.0 μg/ml): No | Combination Index (Etoposide 1 × 10^−6 mol/L, ALM compound 5.0 μg/ml): No | Combination Index (Etoposide 1 × 10^−7 mol/L, ALM compound 0.1 μg/ml): No | Combination Index (Etoposide 1 × 10^−7 mol/L, ALM compound 0.5 μg/ml): No | Combination Index (Etoposide 1 × 10^−7 mol/L, ALM compound 1.0 μg/ml): No | Combination Index (Etoposide 1 × 10^−7 mol/L, ALM compound 5.0 μg/ml): No | Combination Index (Etoposide 1 × 10^−8 mol/L, ALM compound 0.1 μg/ml): 0.414 | Combination Index (Etoposide 1 × 10^−8 mol/L, ALM compound 0.5 μg/ml): 0.910 | Combination Index (Etoposide 1 × 10^−8 mol/L, ALM compound 1.0 μg/ml): No | Combination Index (Etoposide 1 × 10^−8 mol/L, ALM compound 5.0 μg/ml): No | Combination Index (Etoposide 1 × 10^−9 mol/L, ALM compound 0.1 μg/ml): 0.318 | Combination Index (Etoposide 1 × 10^−9 mol/L, ALM compound 0.5 μg/ml): 0.829 | Combination Index (Etoposide 1 × 10^−9 mol/L, ALM compound 1.0 μg/ml): No | Combination Index (Etoposide 1 × 10^−9 mol/L, ALM compound 5.0 μg/ml): No | Combination Index (Etoposide 1 × 10^−10 mol/L, ALM compound 0.1 μg/ml): 0.267 | Combination Index (Etoposide 1 × 10^−10 mol/L, ALM compound 0.5 μg/ml): 0.494 | Combination Index (Etoposide 1 × 10^−10 mol/L, ALM compound 1.0 μg/ml): No | Combination Index (Etoposide 1 × 10^−10 mol/L, ALM compound 5.0 μg/ml): No | Combination Index (Irinotecan 1 × 10^−3 mol/L, ALM compound 0.1 μg/ml): 1.133 | Combination Index (Irinotecan 1 × 10^−3 mol/L, ALM compound 0.5 μg/ml): 0.604 | Combination Index (Irinotecan 1 × 10^−3 mol/L, ALM compound 1.0 μg/ml): 0.531 | Combination Index (Irinotecan 1 × 10^−3 mol/L, ALM compound 5.0 μg/ml): 0.611 | Combination Index (Irinotecan 1 × 10^−4 mol/L, ALM compound 0.1 μg/ml): 0.205 | Combination Index (Irinotecan 1 × 10^−4 mol/L, ALM compound 0.5 μg/ml): 0.136 | Combination Index (Irinotecan 1 × 10^−4 mol/L, ALM compound 1.0 μg/ml): 0.053 | Combination Index (Irinotecan 1 × 10^−4 mol/L, ALM compound 5.0 μg/ml): 0.128 | Combination Index (Irinotecan 1 × 10^−5 mol/L, ALM compound 0.1 μg/ml): No | Combination Index (Irinotecan 1 × 10^−5 mol/L, ALM compound 0.5 μg/ml): 0.682 | Combination Index (Irinotecan 1 × 10^−5 mol/L, ALM compound 1.0 μg/ml): No | Combination Index (Irinotecan 1 × 10^−5 mol/L, ALM compound 5.0 μg/ml): No | Combination Index (Irinotecan 1 × 10^−6 mol/L, ALM compound 0.1 μg/ml): No | Combination Index (Irinotecan 1 × 10^−6 mol/L, ALM compound 0.5 μg/ml): No | Combination Index (Irinotecan 1 × 10^−6 mol/L, ALM compound 1.0 μg/ml): No | Combination Index (Irinotecan 1 × 10^−6 mol/L, ALM compound 5.0 μg/ml): No | Combination Index (Irinotecan 1 × 10^−7 mol/L, ALM compound 0.1 μg/ml): No | Combination Index (Irinotecan 1 × 10^−7 mol/L, ALM compound 0.5 μg/ml): No | Combination Index (Irinotecan 1 × 10^−7 mol/L, ALM compound 1.0 μg/ml): No | Combination Index (Irinotecan 1 × 10^−7 mol/L, ALM compound 5.0 μg/ml): No | Combination Index (Irinotecan 1 × 10^−8 mol/L, ALM compound 0.1 μg/ml): No | Combination Index (Irinotecan 1 × 10^−8 mol/L, ALM compound 0.5 μg/ml): 0.500 | Combination Index (Irinotecan 1 × 10^−8 mol/L, ALM compound 1.0 μg/ml): No | Combination Index (Irinotecan 1 × 10^−8 mol/L, ALM compound 5.0 μg/ml): No | Combination Index (Irinotecan 1 × 10^−9 mol/L, ALM compound 0.1 μg/ml): No | Combination Index (Irinotecan 1 × 10^−9 mol/L, ALM compound 0.5 μg/ml): No | Combination Index (Irinotecan 1 × 10^−9 mol/L, ALM compound 1.0 μg/ml): No | Combination Index (Irinotecan 1 × 10^−9 mol/L, ALM compound 5.0 μg/ml): No | Combination Index (Irinotecan 1 × 10^−10 mol/L, ALM compound 0.1 μg/ml): 0.061 | Combination Index (Irinotecan 1 × 10^−10 mol/L, ALM compound 0.5 μg/ml): No | Combination Index (Irinotecan 1 × 10^−10 mol/L, ALM compound 1.0 μg/ml): No | Combination Index (Irinotecan 1 × 10^−10 mol/L, ALM compound 5.0 μg/ml): No
